{"source": "patent US5444043A", "about": "“Cyclic heptapeptide anti-inflammatory agent” (The Regents of the University of California, priority 1994, dated 1995)", "type_in_all_cases": "in vivo", "key": {"[1]": {"test_system": "phorbol-induced inflammation (edema) of mouse ears", "test": "Inhibition of mouse ear edema, time of addition study", "conditions": "50 ug/ear", "experimental": "Cyclomarin-A was tested by measuring inhibition of phorbol-induced inflammation (edema) of mouse ears. […] […] PMA alone (2 microgram per ear) or in combination with varying amounts of cyclomarin-A was applied to the left ears of (5 mice per treatment group). Acetone was applied to all right ears. After a 3-hour and 20-minute incubation at 23° C., the mice were sacrificed, the ears removed and bores taken and weighed. Edema was measured by subtracting the weight of the right ear (acetone control) from the weight of the left ear (treated). The results were recorded as a percent decrease (inhibition) or percent increase (potentiation) in edema relative to the PMA control group edema."}, "[2]": {"test_system": "phorbol-induced inflammation (edema) of mouse ears", "test": "Inhibition of mouse ear edema, systemic study (IP)", "conditions": "1 hour prior"}, "[3]": {"test_system": "phorbol-induced inflammation (edema) of mouse ears", "test": "Inhibition of phorbol (PMA)-induced mouse ear edema, standard protocol (topical)", "conditions": "for Inhibition of Mouse Ear Edema: 3 h 20 min, relative to PMA control", "experimental": "Cyclomarin-A was tested by measuring inhibition of phorbol-induced inflammation (edema) of mouse ears. […] The compound is topically applied in acetone to the inside pinnae of the ears of mice in a solution containing the edema-causing irritant, i.e. phorbol 12-myristate 13-acetate (PMA). PMA alone (2 microgram per ear) or in combination with varying amounts of cyclomarin-A was applied to the left ears of (5 mice per treatment group). Acetone was applied to all right ears. After a 3-hour and 20-minute incubation at 23° C., the mice were sacrificed, the ears removed and bores taken and weighed. Edema was measured by subtracting the weight of the right ear (acetone control) from the weight of the left ear (treated). The results were recorded as a percent decrease (inhibition) or percent increase (potentiation) in edema relative to the PMA control group edema."}}}
{"substance": "cyclomarin-A", "values": [{"measurement": "Inhibition of Mouse Ear Edema", "setting": "[1]; time of addition 0 mins", "value": 82.8, "unit": "%"}, {"measurement": "Inhibition of Mouse Ear Edema", "setting": "[1]; time of addition +30 mins", "value": 50.9, "unit": "%"}, {"measurement": "Inhibition of Mouse Ear Edema", "setting": "[1]; time of addition +60 mins", "value": 12.0, "unit": "%"}, {"measurement": "Inhibition of Mouse Ear Edema", "setting": "[1]; time of addition -30 mins", "value": 79.4, "unit": "%"}, {"measurement": "Inhibition of Mouse Ear Edema", "setting": "[1]; time of addition -60 mins", "value": 51.8, "unit": "%"}, {"measurement": "Inhibition of Mouse Ear Edema", "setting": "[2]; 25 mg/kg IP", "value": 28.0, "unit": "%"}, {"measurement": "Inhibition of Mouse Ear Edema", "setting": "[2]; 50 mg/kg IP", "value": 55.0, "unit": "%"}, {"measurement": "Inhibition of Mouse Ear Edema", "setting": "[2]; 100 mg/kg IP", "value": 48.0, "unit": "%"}, {"measurement": "Inhibition of Mouse Ear Edema", "setting": "[3]; 5 ug/ear topical with PMA 2 microgram per ear", "value": 3.0, "unit": "%"}, {"measurement": "Inhibition of Mouse Ear Edema", "setting": "[3]; 10 ug/ear topical with PMA 2 microgram per ear", "value": 39.0, "unit": "%"}, {"measurement": "Inhibition of Mouse Ear Edema", "setting": "[3]; 25 ug/ear topical with PMA 2 microgram per ear", "value": 57.0, "unit": "%"}, {"measurement": "Inhibition of Mouse Ear Edema", "setting": "[3]; 50 ug/ear topical with PMA 2 microgram per ear", "value": 88.0, "unit": "%"}, {"measurement": "Inhibition of Mouse Ear Edema", "setting": "[3]; 100 ug/ear topical with PMA 2 microgram per ear", "value": 96.2, "unit": "%"}, {"measurement": "topical anti-inflammatory activity", "setting": "[3]; topical, statement in words", "value": "exhibit topical anti-inflammatory activity"}]}
